Results from patent US20080182811A1, “METABOTROPIC GLUTAMATE RECEPTOR ACTIVATOR” (Ajinomoto Co., Inc., priority 2005, published 2008).

Biological target: T1, group II metabotropic glutamate receptor subtype 3 (mGluR3) (Homo sapiens, UniProt Q14832)
T1 construct: expressed in transfected cells; host or cells: Xenopus oocytes injected with cRNAs of mGluR3, GIRK1 and GIRK4
Assay: Electrophysiological measurement of response current in Xenopus oocytes injected with mGluR3, GIRK1 and GIRK4 cRNAs
Type: cell-based
Conditions: for mgluR3 (receptor activation by amino acid): amino acid alone, 1 mM, oocytes injected with mGluR3, GIRK1, GIRK4 cRNAs

T1 sequence (Q14832 23-879): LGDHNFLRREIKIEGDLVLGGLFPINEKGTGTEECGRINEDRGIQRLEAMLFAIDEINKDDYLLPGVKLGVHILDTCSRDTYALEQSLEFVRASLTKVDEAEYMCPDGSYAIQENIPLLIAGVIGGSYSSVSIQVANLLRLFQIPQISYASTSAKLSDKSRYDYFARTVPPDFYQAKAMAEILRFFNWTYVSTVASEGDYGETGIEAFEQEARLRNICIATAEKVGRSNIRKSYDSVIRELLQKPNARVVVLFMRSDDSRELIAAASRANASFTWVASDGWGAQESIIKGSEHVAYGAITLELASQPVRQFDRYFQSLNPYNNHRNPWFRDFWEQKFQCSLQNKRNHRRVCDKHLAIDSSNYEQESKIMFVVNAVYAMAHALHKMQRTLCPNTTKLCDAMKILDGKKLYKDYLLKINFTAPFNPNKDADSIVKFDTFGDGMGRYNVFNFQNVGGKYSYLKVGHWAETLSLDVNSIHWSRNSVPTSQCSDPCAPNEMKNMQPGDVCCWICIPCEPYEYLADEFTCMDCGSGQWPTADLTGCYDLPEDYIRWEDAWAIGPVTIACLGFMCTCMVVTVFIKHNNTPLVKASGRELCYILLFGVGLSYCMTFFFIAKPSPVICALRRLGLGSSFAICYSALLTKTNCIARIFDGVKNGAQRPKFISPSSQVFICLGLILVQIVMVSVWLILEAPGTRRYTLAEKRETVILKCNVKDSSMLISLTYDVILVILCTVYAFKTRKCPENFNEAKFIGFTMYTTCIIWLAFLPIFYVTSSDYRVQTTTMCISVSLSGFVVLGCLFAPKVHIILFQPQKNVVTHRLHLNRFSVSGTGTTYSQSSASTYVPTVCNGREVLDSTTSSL

SMILES: O=C(O)[C@@H]1C[C@@H](O)CN1 [Hydroxyproline, hydroxyproline]
- mgluR3 (receptor activation by amino acid): Activated
- mgluR3 (receptor activation by amino acid) (listed as hydroxyproline): effects of enhancing the activation

SMILES: NCC(=O)O [Glycine, glycine]
- mgluR3 (receptor activation by amino acid): Activated
- mgluR3 (receptor activation by amino acid) (listed as glycine): effects of enhancing the activation

SMILES: N[C@@H](CO)C(=O)O [Serine, serine]
- mgluR3 (receptor activation by amino acid): Activated
- mgluR3 (receptor activation by amino acid) (listed as serine): effects of enhancing the activation

SMILES: CC[C@H](C)[C@H](N)C(=O)O [Isoleucine, isoleucine]
- mgluR3 (receptor activation by amino acid): Activated
- mgluR3 (receptor activation by amino acid) (listed as isoleucine): effects of enhancing the activation

SMILES: N[C@@H](Cc1c[nH]cn1)C(=O)O [Histidine, histidine]
- mgluR3 (receptor activation by amino acid): Activated
- mgluR3 (receptor activation by amino acid) (listed as histidine): effects of enhancing the activation

SMILES: N[C@@H](Cc1c[nH]c2ccccc12)C(=O)O [Tryptophan, tryptophan]
- mgluR3 (receptor activation by amino acid): Activated
- mgluR3 (receptor activation by amino acid) (listed as tryptophan): effects of enhancing the activation

SMILES: NC(=O)C[C@H](N)C(=O)O [Asparagine, asparagine]
- mgluR3 (receptor activation by amino acid): Activated
- mgluR3 (receptor activation by amino acid) (listed as asparagine): effects of enhancing the activation

SMILES: N[C@@H](Cc1ccccc1)C(=O)O [Phenylalanine, phenylalanine]
- mgluR3 (receptor activation by amino acid): Activated
- mgluR3 (receptor activation by amino acid) (listed as phenylalanine): effects of enhancing the activation

SMILES: N=C(N)NCCC[C@H](N)C(=O)O [Arginine, arginine]
- mgluR3 (receptor activation by amino acid): Activated
- mgluR3 (receptor activation by amino acid) (listed as arginine): effects of enhancing the activation

SMILES: C[C@H](N)C(=O)O [Alanine, alanine]
- mgluR3 (receptor activation by amino acid): Activated
- mgluR3 (receptor activation by amino acid) (listed as alanine): effects of enhancing the activation

SMILES: NCCS(=O)(=O)O [Taurine, taurine]
- mgluR3 (receptor activation by amino acid): Activated
- mgluR3 (receptor activation by amino acid) (listed as taurine): effects of enhancing the activation

SMILES: CC(C)C[C@H](N)C(=O)O [Leucine, leucine]
- mgluR3 (receptor activation by amino acid): Activated
- mgluR3 (receptor activation by amino acid) (listed as leucine): effects of enhancing the activation
- effect of amino acid (response current value) with cation vs amino acid alone (coexistence with calcium ion (10 mM), glutamic acid 3 μM, aspartic acid 300 μM, leucine 1 mM, cysteine 1 mM, FIG. 7): enhanced
- effect of amino acid (response current value) with nucleic acid and cation vs amino acid alone (coexistence with inosinic acid (1 mM) and calcium ion (10 mM), glutamic acid 3 μM, aspartic acid 300 μM, leucine 1 mM, cysteine 1 mM, FIG. 8): enhanced
- effect of amino acid (response current value) with nucleic acid vs amino acid alone (coexistence with inosinic acid (1 mM), glutamic acid 3 μM, aspartic acid 300 μM, valine 1 mM, leucine 1 mM, FIG. 6): enhanced

SMILES: NC(=O)CC[C@H](N)C(=O)O [Glutamine, glutamine]
- mgluR3 (receptor activation by amino acid): Activated
- mgluR3 (receptor activation by amino acid) (listed as glutamine): effects of enhancing the activation

SMILES: C[C@@H](O)[C@H](N)C(=O)O [Threonine, threonine]
- mgluR3 (receptor activation by amino acid): Activated
- mgluR3 (receptor activation by amino acid) (listed as threonine): effects of enhancing the activation

SMILES: NCCCC[C@H](N)C(=O)O [Lysine, lysine]
- mgluR3 (receptor activation by amino acid): Activated
- mgluR3 (receptor activation by amino acid) (listed as lysine): effects of enhancing the activation

SMILES: CSCC[C@H](N)C(=O)O [Methionine, methionine]
- mgluR3 (receptor activation by amino acid): Activated
- mgluR3 (receptor activation by amino acid) (listed as methionine): effects of enhancing the activation

SMILES: N[C@@H](Cc1ccc(O)cc1)C(=O)O [Tyrosine, tyrosine]
- mgluR3 (receptor activation by amino acid): Activated
- mgluR3 (receptor activation by amino acid) (listed as tyrosine): effects of enhancing the activation

SMILES: O=C(O)[C@@H]1CCCN1 [Proline, proline]
- mgluR3 (receptor activation by amino acid): Activated
- mgluR3 (receptor activation by amino acid) (listed as proline): effects of enhancing the activation

SMILES: NCCC[C@H](N)C(=O)O [Ornithine, ornithine]
- mgluR3 (receptor activation by amino acid): Activated
- mgluR3 (receptor activation by amino acid) (listed as ornithine): effects of enhancing the activation
